The text below walks through data of US20120172344A1, “INSULIN-PRODUCING CELL INDUCER, GLUCOSE INTAKE ENHANCER, AND THERAPEUTIC AGENT FOR DIABETES OR DIABETES COMPLICATIONS” (KYUSHU UNIVERSITY, NATIONAL UNIVERSITY CORPORATION, priority 2009, published 2012).

The subject of assay [1] is Tg23 mice (diabetic nephropathy). The assay can be described thus: Experimental Example 2: effect of estradiol on second to third stage of diabetic nephropathy. It counts as in vivo, mouse. The procedure: (a) Albumin concentration: Albuwellkit (Exocell),
(b) Creatinine: High-performance liquid chromatography (HPLC), and
(c) Creatinine clearance (Ccr): calculated by the next formula.
Ccr=urine creatinine (mg/dL)×urine volume (μL/min)/serum creatinine (mg/dL)/body weight (g). [Math. 1]
50 glomeruli were analyzed for each of the mice. The total area of the glomeruli was measured in PAS-stained sections using Image-Pro Plus (Media Cybernetics). The PAS-positive area fraction was calculated as the ratio of PAS-positive area to glomerular sectional surface area. Glomerular number was measured by counting all of the glomeruli per mid-transverse section of left kidney for each of the mice.
For Tg23 mice, at 20-35 weeks of age, which is when reduction in renal functions and renal lesions are observed, a single pellet of 17β-estradiol was subcutaneously administered, and the effect of estradiol was investigated. […]
PAS staining, and immunostaining using the anti-collagen type IV antibody were performed on glomerular tissues from each of the mice (48 weeks of age), and the results of the staining are shown respectively in FIG. 2(1) and FIG. 2(2). […] The expression intensity was measured in random fields (n=30/section) of the glomerulus, and the result was expressed as average pixel intensity.

In another assay the test system is Tg23 mice. The assay can be described thus: Experimental Example 4: blood glucose, blood parameters, food consumption and oral glucose tolerance test. It counts as in vivo, mouse. As to conditions: for blood glucose level: Tg23 mice 11 weeks of age. The procedure: Blood glucose levels were measured by an enzyme-electrode method with ONE TOUCH UltraVue (Johnson & Johnson K.K.) on whole blood taken from tail veins of subject animals.
Immediately before collecting organs, blood parameters were measured using various methods and measurement kits described below in blood collected from the hearts of animals anesthetized with nembutal.
(c) Blood urea nitrogen (BUN): Urease UV method,
(d) Aspartate aminotransferase (AST) and alanine aminotransferase (ALT): JSCC standardization method,
(e) Serum insulin concentration: Enzyme-linked immunosorbent assay kit (Morinaga Institute of Biological Science),
(f) Serum glucagon concentration: YK142 Mouse […] EIA kit (Yanaihara Institute Inc.),
(g) Total serum cholesterol level: Enzymatic assay reagent (Wako Pure Chemical Industries),
After a 16-hour fast, mice were administered with glucose (1 g/kg of body weight) by gavage. Blood samples were collected from the tail vein at 0, 15, 30, 60, 90, and 120 minutes after the oral administration, and blood glucose levels were measured. In addition, blood samples were collected from the tail vein in a similar manner at 0, 15, and 30 minutes after the oral administration, and serum insulin concentrations were measured.
Subject mice were individually housed in metabolic cages for four days to assess food consumption (g/24 h) and water consumption (ml/24 h). During measurement, food and water were supplied to the mice ad libitum. Measurements were repeated three times for each group.
Tg23 mice (11 weeks of age) were divided into four groups (each group: n=4 to 10): an estradiol administration group (E only group), a testectomy group (Tx only group), a testectomy-and-estradiol administration group (Tx+E group), and a control group (Tg group). For E only group, sham surgery of testectomy (Tx) was performed, and a single pellet of 17β-estradiol (E) was subcutaneously administered at the nape of the neck. […] For Tx+E group, testectomy was performed, and a single pellet of 17β-estradiol was subcutaneously administered at the nape of the neck.
Then, blood glucose levels (mg/dl) were measured every week for E only group, Tx only group, Tx+E group, and Tg group, and wild-type mice (WT). In addition, measurements were performed with Tx+E group, Tg group, and wild-type mice (WT), for serum insulin concentrations (pg/mL), serum glucagon concentrations (pg/mL), blood urea nitrogen (BUN) concentrations (mg/dL), total serum cholesterol levels ([…]), aspartate aminotransferase (AST)/alanine aminotransferase (ALT), and food consumption per day (g/day). Furthermore, oral glucose tolerance test was performed, and changes in blood glucose level and serum insulin concentration over time were measured.

[2] abbreviates: Tx+E mice, glucose 1 g/kg by gavage after 16-hour fast.

On to `C[C@]12CC[C@@H]3c4ccc(O)cc4CC[C@H]3[C@@H]1CC[C@@H]2O` [estradiol, 17β-estradiol], for which, in assay [1] (Tg23 mice treated at 24 weeks of age (Tx + single 17β-estradiol pellet s.c.), tissues at 48 weeks of age), the “sclerosis of the glomeruli (PAS staining, collagen IV immunostaining)” value is “alleviated to a degree not different from wild-type mice”. The “renal functions and renal tissues (GFR, Ualb/Cr, kidney weight, urinary glucose, urine volume)” value in assay [1] (Tg23 mice, second stage of diabetic nephropathy (early nephropathia stage), Tx + single 17β-estradiol pellet s.c.) is on record as “dramatically improves”. In addition, the blood glucose level entry in the assay on Tg23 mice (E only group (sham surgery + 17β-estradiol pellet s.c.)) is recorded as “effective for reducing blood glucose level”. Moreover, the blood glucose level entry with Tg23 mice (Tx+E group (testectomy + 17β-estradiol pellet s.c.)) is on record as “effective for reducing blood glucose level”. Further, in the assay with Tg23 mice (Tx+E mice), the AST/ALT entry is “returned to normal”, the “blood urea nitrogen (BUN)” value is “returned to normal”, the “food consumption per day” value is “returned to normal” and the serum glucagon result is on record as “returned to normal”. Moreover, in the assay on Tg23 mice (Tx+E mice), the serum insulin level entry is recorded as “largely increased” and the total serum cholesterol entry is reported as “returned to normal”. Besides, in the assay with Tg23 mice (setting [2]), the “blood glucose level in oral glucose tolerance test” value was “returned to basal level after a time point of 180 minutes” and the “insulin secretion in oral glucose tolerance test” value was “increased”.
